Test results as given in patent publication US20250177412A1, “SMALL-MOLECULE INHIBITORS TARGETING THE BOB1/OCT1 INTERFACE” (NANTES UNIVERSITE, priority 2022, published 2025).

Tests used:
[1] = tested on: B cells; test: GZMB+ B cell expansion; type: cell-based, human; details: 10 μM added daily, day 3
Procedure: B cells were kept unstimulated (B resting) or stimulated (B expanded) for 24 hours with the expansion mixture containing F(ab′)2 anti-BCR, CpG ODN, CD40L, IL-2, and IL-21. FIG. 6A-B show the expression level of granzyme B measured as frequency (FIG. 6A) and by the MFI (FIG. 6B) in DMSO-treated (compound 005-) and 10 μM compound 005-treated resting (open circles) and expanded for 3 days (closed circles) B cells. […] Representative offset histogram overlays showing median fluorescence intensity of staining of gated live […] with cell proliferation dye (CPD) (FIGS. 6C, 6E and 6F). […]
Primary total human B cells (1×10^6 cells/mL) were prestimulated for ˜24 h with the cocktail containing 10 ng/mL of IL-21 (Miltenyi Biotec), 5 μg/mL of F(ab′)2 anti-BCR Abs (Jackson ImmunoResearch Laboratories Inc.), 50 ng/ml of CD40L (R&D systems), 1 μg/mL of CpG oligonucleotides (ODN 2006, Invivogen), and 50 U/mL of IL-2 (Novartis) as previously described, in the presence of vehicle (DMSO) or 10 μM compound 005. […] The capacity of B cells to suppress effector T cell proliferation was assessed as previously described. […] T cell proliferation was evaluated as the percentage of CPD-low T cells on day 3. […]

[2] = tested on: naïve B cells; test: In vitro plasmablast differentiation with naive B cells; type: cell-based, human; details: data not shown
Excerpt: Blood samples were obtained from healthy volunteers provided by Sanquin Blood Supply Foundation (Amsterdam, the Netherlands) or from Etablissement Français du Sang (Nantes, France) after written consent was obtained. Peripheral blood mononuclear cells (PBMCs) were isolated through Ficoll-Paque gradient centrifugation on Lymphoprep (Nycomed). Total B cells were isolated from freshly purified PBMCs by negative selection (B cell Isolation Kit II; Miltenyi Biotech, 130-091-151) on magnetic columns using autoMACS Pro Separator according to the manufacturer's instructions. […] Ultimately, purity of the MACS-isolated CD19^+ B cells, CD19^+CD27^+IgD^− memory B cells and CD19^+CD27^−IgD^+ […] was assessed by flow cytometry; purity was >90% for B cells, >65% for memory B cells, and >85% for naive B cells. […]
B cells were stimulated to differentiate into plasmablasts using a two-phase cell culture protocol as previously described. […] At days 0, 4 and 7, B cells were stained with viability marker LIVE/DEAD Fixable Aqua Dead Cell Stain (Thermofisher) to identify dead cells, followed by extracellular staining with anti-human mAbs: anti-CD20 FITC, anti-IgD BUV395, anti-CD27 BUV737, anti-CD38 BV605 (all from BD Biosciences) and analyzed by flow cytometry (FACSCelesta™, BD Biosciences). […]

[3] = tested on: HEK293 cells; test: MTT assay; type: cell-based; details: data not shown

**Q.** `Cc1ccc(NC(=O)C2CN(c3nc(NCCCc4ccc(F)cc4)nc(NCCC(=O)O)n3)c3ccccc3O2)cc1Cl` (stereo not shown) [compound 005, 3-((4-(2-((3-chloro-4-methylphenyl)carbamoyl)-2,3-dihydro-4H-benzo[b][1,4]oxazin-4-yl)-6-((3-(4-fluorophenyl)propyl)amino)-1,3,5-triazin-2-yl)amino)propanoic acid] was tested. Which GZMB expression [1] did it give?
**A.** Its GZMB expression is “did not affect”.

**Q.** And the “effect on proliferation, CD38 and CD20 expression and plasmablast differentiation” value [2]?
**A.** The value was “comparable dose-dependent effect”.

**Q.** What about the “toxicity for HEK293 cells” value ([3]; concentrations up to 40 μM) of the same compound?
**A.** The value was “non-toxic or mildly toxic”.

**Q.** And the “concentration from which inhibitory effect is observed in MTT assay” value [3]?
**A.** The value was at least 10 µM.
